Measurements taken from patent publication US7473681B2, “Kahalalide F” (Pharma Mar, S.A., priority 2000, dated 2009).
pIC50: −log10 of the molar value. Where two headings read alike, the source gives them in different places.

Columns and labels:
[1] = Solubility of KF and recovery after reconstitution and dilution; type: physicochemical; details: 5/5/90% v/v/v CEW, diluted with 0.9% NaCl down to 0.5 μg/mL
Protocol: Methods. Solubility and stability of KF were studied as a function of polysorbate 80 (P80; 0.1-0.5% w/v) and citric acid monohydrate (CA; 5-15 mM) concentrations using an experimental design approach. Stabilities of KF lyophilized products containing crystalline (mannitol) or amorphous (sucrose) bulking agents were studied at +5° C. and +30° C. in the dark. Lyophilized products were characterized by infrared (IR) spectroscopy and differential scanning calorimetry. Recovery studies after reconstitution of KP lyophilized product and further dilution in infusion fluid were carried out to select an optimal reconstitution vehicle. Results. […] A combination of 0.1% w/v P80 and 5 mM CA was selected for further investigation. […] The glass transition temperature of the sucrose-based product was determined to be +46° C. The amorphous state of the product was confirmed by IR analysis. […] A stable lyophilized formulation is presented containing 100 μg of kahalalide F, 100 mg sucrose, 2.1 mg CA and 2 mg P80 to be reconstituted with a vehicle composed of 5/5/90% v/v/v CEW, and to be further dilute using normal saline.

[2] = CellTiter96 (MTS) in vitro cytotoxicity assay; details: H9 c2 (2-1) cardiac cells
[3] = system: skeletal muscle (L8) cells; assay: CellTiter96 (MTS) in vitro cytotoxicity assay; type: cell-based
[4] = CellTiter96 (MTS) in vitro cytotoxicity assay; type: cell-based; details: mouse, AML-12 liver cells; read-out: LD50 (the source's name)
[5] = CellTiter96 (MTS) in vitro cytotoxicity assay; type: cell-based; details: rat, NRX-52E kidney cells; read-out: LD50 (the source's name)
[6] = CellTiter96 (MTS) in vitro cytotoxicity assay; type: cell-based; details: mouse, FDC-P1 myelogenous stem cells; FDC-Pl myelogenous stem cells; read-out: LD50 (the source's name)
[7] = system: astrocytes (glial fibrilary acidic protein positive); assay: Fluorescent viability stain with immunocytochemistry; type: cell-based; details: ~10 μM
Protocol: (§1) We have also found this drug to be neuxotoxic at high concentrations in our assay system and which correlates well with animal data showing neurotoxicity above the maximum tolerated dose (MTD). Using a fluorescent viability stain (ethidium homodimer and calccin AM, Molecular Probes) coupled with immunocytochemistry, we determined that ˜10 μM Kahalalide is toxic to central nervous system (CNS) neurons (neurofilament positive) but spares astrocytes (glial fibrilary acidic protein positive) as well as sensory (substance P expressing) and motor (choline acetyl transferase positive) neurons in the spinal cord. We conclude that Kahalalide F is a promising drug for the treatment of prostate cancer as its neurotoxicity is relatively mild at or below MTD levels.

[8] = system: central nervous system (CNS) neurons (neurofilament positive); assay: as above; type: cell-based; details: ethidium homodimer and calcein AM stain
Protocol: as §1

[9] = system: motor (choline acetyl transferase positive) neurons in the spinal cord; assay: as above; type: cell-based; details: ~10 μM
Protocol: as §1

[10] = system: sensory (substance P expressing) neurons in the spinal cord; assay: as above; type: cell-based; details: ~10 μM
Protocol: as §1

[11] = Rodent maximum tolerated dose; type: in vivo
PC-3 = assay: In vitro antiproliferative study; type: cell-based; details: PC-3 prostate tumor
DU-145 = assay: In vitro antiproliferative study; type: cell-based; details: DU-145 prostate tumor
T-10 = assay: In vitro antiproliferative study; type: cell-based; details: T-10 prostate tumor
DHM = assay: In vitro antiproliferative study; type: cell-based; details: DHM prostate tumor
RB = assay: In vitro antiproliferative study; type: cell-based; details: RB prostate tumor
SK-BR-3 = assay: In vitro antiproliferative study; type: cell-based; details: SK-BR-3 neu+ breast tumor cells
BT-474 = assay: In vitro antiproliferative study; type: cell-based; details: BT-474 neu+ breast tumor cells
BE(2)C = assay: In vitro antiproliferative study; type: cell-based; details: BE(2)C neuroblastoma cell line
[12] = In vitro exposure studies; type: cell-based; details: exposure of 1 hour as potent as 48 hours, in most cases
[13] = system: fresh human tumor specimens; assay: Human Tumor Cloning Assay; type: cell-based; details: 14-day continuous exposure, 31 evaluable specimens
Protocol: In the present study, fresh human tumor specimens were treated with KF to determine activity, utilizing the Human Tumor Cloning Assay. One hundred and four patient tumor specimens were treated with KF under 14-day continuous exposure at 0.01, 0.1, and 1.0 μM. Specimens were incubated in a 2-layer soft-agar cloning system at 37° C. and were removed on Day 14 for colony count. Colonies formed in the treated plates were compared to the number of colonies formed in the untreated control plates, and the percent colonies surviving at each concentration was calculated. The positive control plates contained the cell poison orthosodium vanadate (200 μg/ml). Among these specimens, approximately 30% were evaluable with appropriate negative and positive controls.

[14] = Phase I study: plasma pharmacokinetics; type: in vivo, human
Protocol: Bioanalysis of KF was performed by LC-MS/MS.

[15] = system: patients with advanced or metastatic androgen refractory prostate cancer; assay: Phase I study: toxicity and anti-tumor activity; type: in vivo, human
[16] = system: hepatocellular carcinoma cells; assay: Cytotoxicity to carcinoma cells; type: cell-based
prostate carcinoma cells = assay: Cytotoxicity to carcinoma cells; type: cell-based
[17] = glass infusion containers, refrigerated (+2-8° C., in the dark)
Excerpt: Prior to in i.v. administration it is reconstituted with a solution composed of Cremophor EL, ethanol absolute and Water for Injection (CEW, 5/5/90% v/w) with further dilution in 0.9% w/v sodium chloride for infusion.

[18] = system: dedifferentiated and mesenchymal chodrosarcomas, CHSAs

C/C=C1\NC(=O)[C@H](Cc2ccccc2)NC(=O)[C@@H](C(C)C)NC(=O)[C@@H](C(C)CC)NC(=O)[C@H](NC(=O)C(NC(=O)[C@H](CCCN)NC(=O)[C@H]2CCCN2C(=O)[C@H](NC(=O)[C@@H](NC(=O)[C@@H](NC(=O)[C@H](NC(=O)CCCC(C)C)C(C)C)C(C)O)C(C)C)C(C)C)C(C)CC)C(C)OC(=O)[C@H](C(C)C)NC1=O (single isomer, unassigned) [Kahalalide F, kahalalide F]
KF in solution after reconstitution and further dilution [1]: kept KF in solution
LD50 [2]: 5 mM
LD50 [3]: 0.6 mM
CC50 [4]: 170 nM
CC50 [5]: 1600 nM
CC50 [6]: 14000 nM
toxicity to astrocytes [7]: spares
concentration toxic to CNS neurons [8]: ~10 µM
toxicity to motor neurons [9]: spares
toxicity to sensory neurons [10]: spares
MTD [11]: 300 μg/kg BW
pIC50 (PC-3): 6.57
pIC50 (DU-145): 6.60
pIC50 (T-10): 6.14
pIC50 (DHM): 6.62
pIC50 (RB): 6.72
pIC50 (SK-BR-3): 5.60
pIC50 (BT-474): 5.70
pIC50 (BE(2)C): 6.00
schedule dependence of cytotoxicity [12]: not schedule-dependent
specimens with in vitro response (50% survival) ([13]; 0.01 μg/M): 16%
specimens with in vitro response (50% survival) ([13]; 0.1 μg/M): 19%
specimens with in vitro response (50% survival) ([13]; 1.0 μg/M): 81%
maximum plasma concentrations ([14]; 320 μg/m2/day): 35 to 50 ng/mL
relationship between dose and AUC ([14]; i.v. infusion over one hour, 20-320 μg/m2/day, patients): linear relationship
drug related toxicity ([15]; 320 μg/m2/day, rapidly reversible): CTC grade 3 ASAT
tolerability of schedule ([15]; one hour infusion, five consecutive days every three weeks): well tolerated
maximum tolerated dose ([15]; up to 320 μg/m2/day, study ongoing): has not been reached yet
cytotoxicity [16]: cytotoxic
cytotoxicity (prostate carcinoma cells): cytotoxic
stability of infusion solutions [17]: at least 5 days
cytotoxicity ([18]; CHSAs): cytotoxic
exposure time eliciting a cytotoxic effect ([18]; cells not specified further in the sentence): 10 min
cytotoxicity (osteosarcomas, OSAs): cytotoxic
